Data from ChEMBL document CHEMBL1147847, “Evaluation of electronic, lipophilic and membrane affinity effects on antiproliferative activity of 5-substituted-2-(2,4-dihydroxyphenyl)-1,3,4-thiadiazoles against various human cancer cells” (2007).

Experiments:
Assay type in all cases: functional
[1] = Antiproliferative activity against human HCV29T cells by SRB method
A549 = test: Antiproliferative activity against human A549 cells by SRB method
[2] = Antiproliferative activity against human SW707 cells by SRB method
T47D = test: Antiproliferative activity against human T47D cells by SRB method

Structure (SMILES)	log(1/ID50) [1]	log(1/ID50) (A549)	log(1/ID50) [2]	log(1/ID50) (T47D)
OCCCc1nnc(-c2ccc(O)cc2O)s1	-2.232			
Oc1ccc(-c2nnc(-c3ccccc3)s2)c(O)c1	-2.276			
Oc1ccc(-c2nnc(-c3ccc(O)cc3O)s2)c(O)c1	-2.045			
Oc1ccc(-c2nnc(-c3ccc(-c4ccccc4)cc3)s2)c(O)c1	-1.693	-1.28	-1.161	-1.407
Oc1ccc(-c2nnc(Cc3ccccc3)s2)c(O)c1	-2.09			
Oc1ccc(-c2nnc(Cc3cccc4ccccc34)s2)c(O)c1	-1.923	-1.865	-1.926	-1.629
Oc1ccc(-c2nnc(-c3ccncc3)s2)c(O)c1	<-2.567			
Oc1ccc(-c2nnc(-c3cc4ccccc4s3)s2)c(O)c1	-1.848			
Oc1ccc(-c2nnc(COc3ccccc3Cl)s2)c(O)c1	-2.061	-2.108	-2.037	-1.494
Oc1ccc(-c2nncs2)c(O)c1	-2.25			
CCOc1ccc(-c2nnc(-c3ccc(O)cc3O)s2)cc1	-2.016			
Cc1cccc(-c2nnc(-c3ccc(O)cc3O)s2)c1O	-1.745	-1.292	-1.746	-1.273
CCCCCCCCCCCCCCCc1nnc(-c2ccc(O)cc2O)s1	<-2.393			
Oc1ccc(-c2nnc(COc3ccc(F)cc3)s2)c(O)c1	-1.999			
Oc1ccc(-c2nnc(COc3ccc(Cl)cc3Cl)s2)c(O)c1	-2.41			
O=[N+]([O-])c1ccc(OCc2nnc(-c3ccc(O)cc3O)s2)cc1	-2.429			

Structure (SMILES)	log(1/ID50) [1]	log(1/ID50) (A549)	log(1/ID50) [2]	log(1/ID50) (T47D)
Oc1ccc(-c2nnc(C(O)c3ccccc3)s2)c(O)c1 (stereo not drawn)	-1.857	-2.139	-2.027	-2.148
Oc1ccc(-c2nnc(CCCCc3nnc(-c4ccc(O)cc4O)s3)s2)c(O)c1	-1.421	-1.42	-1.025	<-2.354
Oc1cc(O)cc(-c2nnc(-c3ccc(O)cc3O)s2)c1	-2.182			
Oc1ccc(-c2nnc(-c3ccccn3)s2)c(O)c1	-2.152			
CC(C)(C)c1ccc(-c2nnc(-c3ccc(O)cc3O)s2)cc1	-1.057	-1.593	-1.139	-1.088
Oc1ccc(-c2nnc(-c3cccc4ccccc34)s2)c(O)c1	-1.871	-1.828	-1.766	-1.18
Oc1ccc(-c2nnc(COc3cccc(F)c3)s2)c(O)c1	-2.093			
Oc1ccc(-c2nnc(-c3ccccc3Br)s2)c(O)c1	-1.919	-1.912	-1.89	-1.444
Cc1cc(Cl)ccc1OCc1nnc(-c2ccc(O)cc2O)s1	-1.816	-1.964	-2.117	-1.402
CCOc1cccc(-c2nnc(-c3ccc(O)cc3O)s2)c1	-2.04			
Oc1ccc(-c2nnc(-c3ccccc3O)s2)c(O)c1	-2.083			
COc1cccc(COc2nnc(-c3ccc(O)cc3O)s2)c1	-0.522	-1.379	-1.18	-0.958
Oc1ccc(-c2nnc(-c3ccco3)s2)c(O)c1	-2.178	<-2.585	<-2.585	-2.196
COc1cc(-c2nnc(-c3ccc(O)cc3O)s2)cc(OC)c1O	-2.027			
CCOc1nnc(-c2ccc(O)cc2O)s1	-2.305			
COc1nnc(-c2ccc(O)cc2O)s1	-2.343			
